What was measured:
AhR-RORγt complex = test: Proximity ligation assay (PLA) in peripheral blood T cells of SLE and RA patients; assay type: cell-based, human; conditions: 5 μM for 30 min
Method: (A) Luciferase activity of NF-κB-driven reporter assays in stable GLK-transfected CHO-K1 cells that were treated with or without the GLK inhibitor C1 (verteporfin) under the indicated concentration. The fold changes are presented relative to the value of vector control. (B) Recombinant proteins of GLK kinase domain plus recombinant proteins of GST-tagged kinase-dead PKCθ (K409W) were subjected to in vitro kinase assays in the presence or absence of the GLK inhibitor C1 (verteporfin). Means±SD of are shown. *, P value<0.05; **, P value<0.01 (two-tailed Student's t-test). (C) The AhR-RORγt complex was inhibited by the GLK inhibitor. […] (D) Quantification of the PLA signals of (C). […]
PLA assays were performed using the DUOLINK® In Situ Red Starter kit (Sigma) according to the manufacturer's instructions. […] After ligation and amplification reactions, the PLA signals from each pair of PLA probes in close proximity (<40 nm) were visualized as individual red dots by a fluorescence microscope (Leica DM2500) or a confocal microscope (Leica TCS SP5II). […]
T cells of Lck-GLK transgenic mice, GLK-overexpressing T cells, activated T cells or AhR+RORγt+IKKβ-overexpressing cells were used. […] After ligation and amplification reactions, the PLA signals from each pair of PLA probes in close proximity ([…]) were visualized as individual red dots by a fluorescence or a confocal microscope. […]

Lck-GLK Tg mice = test: Treatment of Lck-GLK Tg mice, serum ELISA; assay type: in vivo, mouse; conditions: 0.556 nmole/g i.v. every 3 days for 30 days
From the text: (A to C) Effect of the GLK inhibitor C1 (verteporfin) administration (0.556 nmole/g every 3 days for 30 days) on serum IL-17A and autoantibodies in Lck-GLK Tg mice. (B) ELISA of indicated serum cytokines in Lck-GLK Tg mice treated with C1 (verteporfin) or PBS. (C) ELISA of serum autoantibodies in Lck-GLK Tg mice treated with C1 (verteporfin) or PBS. Means±SEM are shown. (D) Experimental autoimmune encephalomyelitis (EAE) induction in wild-type mice treated with PBS, or the GLK inhibitor C1 (verteporfin) and C2. Clinical scores are presented on a scale of 1 to 5 (left panel). ELISA of IL-17A in the sera from MOG-immunized mice at day 16 (right panel). (E) Collagen-induced arthritis (CIA) induction in wild-type mice treated with the GLK inhibitor C1 (verteporfin) or PBS. Clinical scores are presented on a scale of 1 to 16 (left panel). ELISA of IL-17A in the sera from collagen-immunized mice at day 28. […]
Serum levels of IL-1β, IL-4, IL-6, IL-12, IL-17F, IL-21, IL-22, IL-23, IFN-γ, TNF-α, and TGF-β were analyzed by individual ELISA kits purchased from eBioscience. The IL-17A levels were determined using an ELISA kit from Biolegend. The serum levels of anti-nuclear antibodies (ANA), anti-dsDNA antibody, and rheumatoid factor (RF) were analyzed by ELISA kits purchased from Alpha Diagnostic International. […]

[1] = test system: in vitro differentiated Th17 cells; test: IL-17A production of in vitro differentiated Th17 cells, flow cytometry; assay type: cell-based, mouse; conditions: PMA plus ionomycin, 1 or 5 μM for 30 min
Method: (A) Flow cytometry of IL-17A-producing CD4^+ T cells. Splenic T cells were co-treated with verteporfin (C1) (1 or 5 μM) during Th17 differentiation in vitro. (B) Flow cytometry of IL-17A-producing CD4^+ T cells. Murine in vitro differentiated Th17 cells were stimulated with PMA plus ionomycin and co-treated with verteporfin (C1) (1 or 5 μM) for 30 min. (C) Flow cytometry of Foxp3-producing […] T cells. Splenic T cells were co-treated with verteporfin (C1) (5 μM) during Treg differentiation in vitro. (D) Flow cytometry of Foxp3-producing CD4^+ T cells, which were differentiated from CD4^+ T cells of wild-type or Lck-GLK transgenic mice.

With C=Cc1c(C)c2cc3nc(cc4[nH]c(cc5nc(cc1[nH]2)C(C)=C5CCC(=O)O)c(CCC(=O)OC)c4C)[C@@]1(C)C3=CC=C(C(=O)OC)[C@H]1C(=O)OC [C1, verteporfin] as the compound, how does the “AhR-RORγt complex in T cells from SLE and RA patients” value (AhR-RORγt complex) read?
Its value is “blocked”.

And the “PLA signals (quantification) of AhR with RORγt or phospho-RORγt (S489)” value (AhR-RORγt complex)?
The value was “inhibited”.

What about the overproduction of autoantibodies (Lck-GLK Tg mice) of the same compound?
Its overproduction of autoantibodies is “abolished”.

What about the “serum IL-17A levels” value (Lck-GLK Tg mice; vs PBS) of the same compound?
The value was “significantly decreased”.

What about the “IL-17A production from in vitro differentiated Th17 cells” value [1] of the same compound?
The value was “inhibited”.

— patent US11360080B2, “AhR-ROR-γt complex as a biomarker and therapeutic target for autoimmune disease and IL-17A-associated disease” (NATIONAL HEALTH RESEARCH INSTITUTES, priority 2018, dated 2022)
